How the values were obtained:
WT mice = test: LD50 by intraperitoneal injection (OECD guidelines); assay type: in vivo; conditions: IP injection, survival monitored 14 days
Description: Pharmacokinetics of TGR63 in wild-type (WT) mice was performed to assess its in vivo efficacy. The lethal dose 50 (LD50) of TGR63 was determined in WT mice through intraperitoneal (IP) injection following the Organisation for Economic Cooperation and Development (OECD) guidelines. […] FIG. 7A illustrates the calculation of lethal dose 50% (LD50) of TGR63 through intraperitoneal administration and is represented as table of experimental details and the final observation was done on 14th day. FIG. 7B illustrates the mortality (%) plotted against TGR63 concentration and calculation of LD50. Twenty-five WT mice were segregated in five different groups (G1-5, N= 5 per group) and administered with varying doses of TGR63 (1.7, 5.5, 17.5 56.0 and 179.0 mg/kg body weight, respectively) through IP injection and their survival was monitored for 14 days. The serum stability and blood-brain barrier (BBB) crossing ability of TGR63 were assessed through matrix-assisted laser desorption ionization (MALDI) mass spectrometry analysis of blood and brain samples of vehicle and TGR63 treated mice. […] The partition coefficient (P), a valuable physical property was calculated to predict the BBB permeability. […] The calculated positive logP value predicts the possible BBB crossing ability for TGR63. […]

Aβ42 fibrils = target: T1, Aβ42 fibrils (Homo sapiens, UniProt P05067); test: Dot blot analysis of Aβ42 fibrils with OC antibody; assay type: biochemical
T1 construct: commercially available β-amyloid peptide (1-42), human; purchased marck (so in the source) PP69-.025 mg
T1 sequence (P05067 672-713 limits assumed): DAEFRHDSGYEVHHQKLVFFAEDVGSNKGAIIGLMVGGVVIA
Description: The inhibition ability of TGR63 was further supported through dot blot ([…]) analysis which was used to evaluate the amount of Aβ42 fibrils. 10 µM of freshly prepared Aβ42 sample was incubated with TGR63 and alone independently for 48 h without shaking. The incubated samples were dotted on the PVDF membrane and allowed to dry. The PVDF membranes were blocked using 5% skimmed milk in PBS for 1 h at room temperature. The blots were washed (3 times) with 1% of Tween 20 containing PBS (PBST) for 10 min and incubated with OC (1:1000) primary antibody, specific to Aβ42 fibrils at 4° C. for 16 h. Then the unbound primary antibody was removed by PBST wash (3 times) and incubated with HRP conjugated anti-rabbit secondary antibody (Biorad, 1706515), which was diluted 10000 times. Further, nonspecific binding was removed with PBST wash and the blots were developed (chemiluminescent) and analyzed using BioRad ECL kit. […] Quantification of Aβ42 fibrils was done by firstly incubating 10 µM of Aβ42 peptide samples for 48 h at 37° C. The incubated samples were then spotted on a PVDF membrane and probed with OC (fibril specific, 1:1000) antibody to measure the amount of Aβ fibrils.

[1] = target: T2, Aβ42 fibrillar aggregates (Homo sapiens, UniProt P05067); test: ThT binding assay, dissolution of preformed Aβ42 fibrils; assay type: biochemical; conditions: after sixth day of incubation
T2 construct: commercially available β-amyloid peptide (1-42), human; purchased marck (so in the source) PP69-.025 mg
T2 sequence (P05067 672-713 limits assumed): as above
Description: Monomeric form of Aβ42 peptide was prepared by dissolving 0.25 mg of commercially available β-amyloid peptide (1-42), human (cat: PP69-.025 mg), marck peptide in 250 µL of hexafluoro-2-propanol (HFIP) solvent to obtain a Aβ42 solution. This solution was incubated at room temperature for 1 hour, further to which the HFIP solvent was removed by nitrogen gas flow to obtain the monomeric Aβ42 peptide. To prepare a fibrillar sample of Aβ42 peptide, 0.025 mg of Aβ42 peptide was dissolved in […] of PBS buffer (pH = 7.4; contains 2% of DMSO or 100 mM NaOH) to obtain a monomeric Aβ42 solution and the peptide concentration in this solution was calculated through UV-Visible absorbance studies (ε = 1450 cm^-1 M^-1). The Aβ42 monomeric solution was incubated for 5 days in PBS buffer (pH = 7.4) to allow for the full phase formation of Aβ42 fibrils. The presence of Aβ42 fibrils was further confirmed by ThT assay.
The ability of NMI compounds (TGR63, TGR64 and TGR65) to prevent Aβ42 fibrillar assembly (inhibition) and to break down the preformed fibrils (dissolution) was evaluated using thioflavin (ThT) binding assay. Aβ42 fibrils at a concentration of 10 µM and its aggregates, were used to study the effect of NMI compounds (TGR63, TGR64 and TGR65) at varying concentrations on both inhibition and dissolution assays. For the inhibition assay, all the NMI compounds (TGR63, TGR64 and TGR65) were added independently to Aβ peptide (10 µM) at 0 h of the experiment, whereas for the aggregates dissolution assay they were added to Aβ42 fibrillar aggregates grown for 2 days. Upon incubating for a predetermined period, Aβ42 inhibitor samples were analyzed using ThT by measuring the fluorescence change at 485 nm as presented in FIG. 1(b) and FIG. 1(c), wherein the error bars represent the standard deviation (SD) of the fluorescence measurement. Fluorescence values were normalized to maximal fluorescence intensity at 485 nm compared to that of the control (Aβ42 with no inhibitor). Experiments were performed at various stoichiometric ratios (Aβ42/inhibitor) of 1:1, 1:2, and 1:5 with a fixed concentration of Aβ42 at 10 µM. Each experiment was repeated three times (n = 3). […] TGR 63 recorded 80% dissolution efficiency while TGR 64 and TGR 65 recorded 75% and 78% dissolution efficiency respectively, for the stoichiometric ratio of 1:5.

`CN(C)c1ccc(C#Cc2ccc3c4c(cccc24)C(=O)N(CC[N+](C)(C)C)C3=O)cc1` [TGR63, 2-(6-((4-(dimethylamino)phenyl)ethynyl)-1,3-dioxo-1H-benzo[de]isoquinolin-2(3H)-yl)-N,N,N-trimethylethan-1-aminium] was tested, and the LD50 (WT mice) was ~ 157.9 mg/kg body weight, the “Aβ42 aggregates (quantification of dot blot)” value (Aβ42 fibrils; L2, 10 µM TGR63, 10 µM Aβ42, 48 h at 37° C.) was ~ 90% and the “amount of Aβ42 fibrils decreased (blot image; Aβ42 alone 100%)” value (Aβ42 fibrils; L3, 50 µM TGR63, 10 µM Aβ42, 48 h) was ~ 50%. For the same molecule, the “Aβ42 aggregates (quantification of dot blot)” value (Aβ42 fibrils; L3, 50 µM TGR63, 10 µM Aβ42, 48 h at 37° C.) was ~ 40%, the dissolution efficiency ([1]; Aβ42/inhibitor 1:1, Aβ42 10 µM) was ~ 35% and the dissolution efficiency ([1]; Aβ42/inhibitor 1:2, Aβ42 10 µM) was ~ 50%. It also gave a dissolution efficiency ([1]; Aβ42/inhibitor 1:5, Aβ42 10 µM) of 80%.

— patent publication US20230331679A1, “NAPHTHALENE MONOIMIDE COMPOUNDS AND METHODS THEREOF” (JAWAHARLAL NEHRU CENTRE FOR ADVANCED SCIENTIFIC RESEARCH, priority 2020, published 2023)
